Laboratory results reported in patent US12686873B2, “Plants having increased tolerance to herbicides” (priority 2012, dated 2026).
Where “and” joins values, the source holds several entries; their conditions need not be identical. Equal entries are not always repeated.

How the values were obtained:
[1] = system: transgenic T1 Arabidopsis plants; assay: Transgenic T1 Arabidopsis greenhouse tolerance study (injury rating); settings: SEQ_ID 2 & 4, L397D, F420V
[2] = system: Soy; assay: Tolerance rates for soybean (injury score 0-9); settings: Soy
[3] = system: Chlamydomonas reinhardtii strains; assay: Selection and dose-response of Chlamydomonas reinhardtii strains

C#CCN1C(=O)C(F)(F)Oc2cc(F)c(-n3c(=O)n(C)c(=S)n(C)c3=O)cc21
Injury Rating 0-100% (0 = no injury, 100 = total control) ([1]; 75 g/Ha + 1% MSO, 7 DAT, Line 1): 98%
Injury Rating 0-100% (0 = no injury, 100 = total control) ([1]; 75 g/Ha + 1% MSO, 7 DAT, Line 2): 100%
Injury Rating 0-100% (0 = no injury, 100 = total control) ([1]; 75 g/Ha + 1% MSO, 7 DAT, Line 3): 80%
Injury Rating 0-100% (0 = no injury, 100 = total control) ([1]; 75 g/Ha + 1% MSO, 19 DAT, Line 1): 95%
Injury Rating 0-100% (0 = no injury, 100 = total control) ([1]; 75 g/Ha + 1% MSO, 19 DAT, Line 2): 100%
Injury Rating 0-100% (0 = no injury, 100 = total control) ([1]; 75 g/Ha + 1% MSO, 19 DAT, Line 3): 95%
Injury Rating 0-100% (0 = no injury, 100 = total control) ([1]; 150 g/Ha + 1% MSO, 7 DAT, Line 1): 30%
Injury Rating 0-100% (0 = no injury, 100 = total control) ([1]; 150 g/Ha + 1% MSO, 7 DAT, Line 2): 98%
Injury Rating 0-100% (0 = no injury, 100 = total control) ([1]; 150 g/Ha + 1% MSO, 7 DAT, Line 3): 98%
Injury Rating 0-100% (0 = no injury, 100 = total control) ([1]; 150 g/Ha + 1% MSO, 19 DAT, Line 1): 65%
Injury Rating 0-100% (0 = no injury, 100 = total control) ([1]; 150 g/Ha + 1% MSO, 19 DAT, Line 2): 100%
Injury Rating 0-100% (0 = no injury, 100 = total control) ([1]; 150 g/Ha + 1% MSO, 19 DAT, Line 3): 100%
Injury Rating 0-100% (0 = no injury, 100 = total control) ([1]; 300 g/Ha + 1% MSO, 7 DAT, Line 1): 100%
Injury Rating 0-100% (0 = no injury, 100 = total control) ([1]; 300 g/Ha + 1% MSO, 7 DAT, Line 2): 30%
Injury Rating 0-100% (0 = no injury, 100 = total control) ([1]; 300 g/Ha + 1% MSO, 7 DAT, Line 3): 35%
Injury Rating 0-100% (0 = no injury, 100 = total control) ([1]; 300 g/Ha + 1% MSO, 19 DAT, Line 1): 98%
Injury Rating 0-100% (0 = no injury, 100 = total control) ([1]; 300 g/Ha + 1% MSO, 19 DAT, Line 2): 60%
Injury Rating 0-100% (0 = no injury, 100 = total control) ([1]; 300 g/Ha + 1% MSO, 19 DAT, Line 3): 80%
injury score ([2]; 1,5-dimethyl-6-thioxo-3-(...)-1,3,5-triazinane-2,4-dione 12.5 g ai/ha, amino acid substitution F420L, SEQ ID NO 2): 2 and 1
injury score ([2]; 1,5-dimethyl-6-thioxo-3-(...)-1,3,5-triazinane-2,4-dione 12.5 g ai/ha, amino acid substitution L369D, F392V, SEQ ID NO 40): 8 and 5 and 7 and 6 and 4
injury score ([2]; 1,5-dimethyl-6-thioxo-3-(...)-1,3,5-triazinane-2,4-dione 12.5 g ai/ha, amino acid substitution L397D, F420V, SEQ ID NO 2): 2
injury score ([2]; 1,5-dimethyl-6-thioxo-3-(...)-1,3,5-triazinane-2,4-dione 12.5 g ai/ha, amino acid substitution L397E, SEQ ID NO 2): 5 and 7 and 6 and 4 and 8
injury score ([2]; 1,5-dimethyl-6-thioxo-3-(...)-1,3,5-triazinane-2,4-dione 12.5 g ai/ha, amino acid substitution L397Q, SEQ ID NO 2): 7
injury score ([2]; 1,5-dimethyl-6-thioxo-3-(...)-1,3,5-triazinane-2,4-dione 12.5 g ai/ha, amino acid substitution none, SEQ ID NO 2): 3 and 7 and 6 and 5
injury score ([2]; 1,5-dimethyl-6-thioxo-3-(...)-1,3,5-triazinane-2,4-dione 12.5 g ai/ha, amino acid substitution none, SEQ ID NO 40): 8 and 6 and 7 and 9
injury score ([2]; 1,5-dimethyl-6-thioxo-3-(...)-1,3,5-triazinane-2,4-dione 25 g ai/ha, amino acid substitution F420L, SEQ ID NO 2): 9 and 1 and 3 and 4 and 5
injury score ([2]; 1,5-dimethyl-6-thioxo-3-(...)-1,3,5-triazinane-2,4-dione 25 g ai/ha, amino acid substitution F420M, SEQ ID NO 2): 4 and 1 and 5 and 8
injury score ([2]; 1,5-dimethyl-6-thioxo-3-(...)-1,3,5-triazinane-2,4-dione 25 g ai/ha, amino acid substitution L369D, F392V, SEQ ID NO 40): 9 and 8 and 6 and 7 and 4
injury score ([2]; 1,5-dimethyl-6-thioxo-3-(...)-1,3,5-triazinane-2,4-dione 25 g ai/ha, amino acid substitution L397D, F420V, SEQ ID NO 2): 5
injury score ([2]; 1,5-dimethyl-6-thioxo-3-(...)-1,3,5-triazinane-2,4-dione 25 g ai/ha, amino acid substitution L397D, SEQ ID NO 2): 8 and 4 and 5
injury score ([2]; 1,5-dimethyl-6-thioxo-3-(...)-1,3,5-triazinane-2,4-dione 25 g ai/ha, amino acid substitution L397E, F420M, SEQ ID NO 2): 2 and 1 and 0
injury score ([2]; 1,5-dimethyl-6-thioxo-3-(...)-1,3,5-triazinane-2,4-dione 25 g ai/ha, amino acid substitution L397E, SEQ ID NO 2): 5 and 8 and 6 and 7
injury score ([2]; 1,5-dimethyl-6-thioxo-3-(...)-1,3,5-triazinane-2,4-dione 25 g ai/ha, amino acid substitution L397Q, F420M, SEQ ID NO 2): 3 and 7 and 2 and 0 and 6
injury score ([2]; 1,5-dimethyl-6-thioxo-3-(...)-1,3,5-triazinane-2,4-dione 25 g ai/ha, amino acid substitution L397Q, F420V, SEQ ID NO 2): 4 and 6
injury score ([2]; 1,5-dimethyl-6-thioxo-3-(...)-1,3,5-triazinane-2,4-dione 25 g ai/ha, amino acid substitution L397Q, SEQ ID NO 2): 9
injury score ([2]; 1,5-dimethyl-6-thioxo-3-(...)-1,3,5-triazinane-2,4-dione 25 g ai/ha, amino acid substitution none, SEQ ID NO 2): 5 and 7 and 6 and 8
injury score ([2]; 1,5-dimethyl-6-thioxo-3-(...)-1,3,5-triazinane-2,4-dione 25 g ai/ha, amino acid substitution none, SEQ ID NO 40): 9 and 6 and 7 and 8
injury score ([2]; 1,5-dimethyl-6-thioxo-3-(...)-1,3,5-triazinane-2,4-dione 50 g ai/ha, amino acid substitution F420L, SEQ ID NO 2): 6
injury score ([2]; 1,5-dimethyl-6-thioxo-3-(...)-1,3,5-triazinane-2,4-dione 50 g ai/ha, amino acid substitution F420M, SEQ ID NO 2): 3 and 4 and 2 and 5 and 9
injury score ([2]; 1,5-dimethyl-6-thioxo-3-(...)-1,3,5-triazinane-2,4-dione 50 g ai/ha, amino acid substitution L369D, F392V, SEQ ID NO 40): 8 and 7
injury score ([2]; 1,5-dimethyl-6-thioxo-3-(...)-1,3,5-triazinane-2,4-dione 50 g ai/ha, amino acid substitution L397D, F420V, SEQ ID NO 2): 4
injury score ([2]; 1,5-dimethyl-6-thioxo-3-(...)-1,3,5-triazinane-2,4-dione 50 g ai/ha, amino acid substitution L397D, SEQ ID NO 2): 9 and 5 and 8 and 4 and 6
injury score ([2]; 1,5-dimethyl-6-thioxo-3-(...)-1,3,5-triazinane-2,4-dione 50 g ai/ha, amino acid substitution L397E, F420M, SEQ ID NO 2): 2 and 1
injury score ([2]; 1,5-dimethyl-6-thioxo-3-(...)-1,3,5-triazinane-2,4-dione 50 g ai/ha, amino acid substitution L397Q, F420M, SEQ ID NO 2): 2 and 7 and 3 and 4 and 6 and 5 and 1
injury score ([2]; 1,5-dimethyl-6-thioxo-3-(...)-1,3,5-triazinane-2,4-dione 50 g ai/ha, amino acid substitution L397Q, F420V, SEQ ID NO 2): 5 and 7
injury score ([2]; 1,5-dimethyl-6-thioxo-3-(...)-1,3,5-triazinane-2,4-dione 75 g ai/ha, amino acid substitution L397E, F420M, SEQ ID NO 2): 2 and 3 and 1
injury score ([2]; 1,5-dimethyl-6-thioxo-3-(...)-1,3,5-triazinane-2,4-dione 75 g ai/ha, amino acid substitution L397Q, F420M, SEQ ID NO 2): 3 and 7 and 8 and 4 and 5 and 6 and 2
injury score ([2]; 1,5-dimethyl-6-thioxo-3-(...)-1,3,5-triazinane-2,4-dione 75 g ai/ha, amino acid substitution L397Q, F420V, SEQ ID NO 2): 5 and 7
growth of mutagenized cells plated on solid medium containing the herbicide ([3]; 1×10^−7 M in solid medium, FIG. 2B): susceptible cells do not grow
IC50 of mutagenized cells (strain 17) compared to Wild-type cells ([3]; dose-response curve, FIG. 3B versus FIG. 3A): much lower IC50
